From patent publication US20250051862A1, “METHODS AND COMPOSITIONS RELATED TO ENGINEERED BIOSENSORS” (priority 2021, published 2025)
≈ marks a conversion by molar mass, not a printed value.

T1: RamR (Salmonella typhimurium, UniProt Q8ZR43)
T1 construct: expressed in transfected cells; host or cells: E. coli DH10B co-transformed with pReg (regulator) and pGFP (reporter)
T1 sequence (Q8ZR43 whole entry, looked up): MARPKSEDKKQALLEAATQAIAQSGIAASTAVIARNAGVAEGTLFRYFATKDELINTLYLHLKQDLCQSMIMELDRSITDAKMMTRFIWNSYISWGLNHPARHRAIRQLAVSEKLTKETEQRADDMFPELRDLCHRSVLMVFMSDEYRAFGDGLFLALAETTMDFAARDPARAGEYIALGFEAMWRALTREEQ

B1: RamR: multidrug resistance regulator from Salmonella typhimurium, template for sensor evolution (protein)
chain: MVARPKSEDKKQALLEAATQAIAQSGIAASTAVIARNAGVAEGTLFRYFATKDELINTLYLHLRQDLCQSLIMELDRSITDAKMMMRFIWNSGISWGLNHPARHRAIRQLAVSEKLTKETHQRDLDMFPELRDILHRRVLMVFMSDEYRAFGDGLFLALAETTMDFAARDPARAGEYIALGFEAMWRALTREEQ
modifications: Description of sequence peptide sensor; Name PAP4; This sensor binds to papaverine
notes: multidrug resistance regulator from Salmonella typhimurium, template for sensor evolution

Experiments:
[1] = Solubility limit of BIAs in 1% DMSO; type: physicochemical; conditions: used as maximum ligand concentration
Experimental: (a) Transfer functions for all four generations of RamR variants with five different BIAs. The maximum ligand concentration was chosen based on the compound's solubility limit in 1% DMSO, 100 μM for Noscapine and 250 μM for all other BIAs. Fluorescent measurements for each condition were an average of three biological replicates. (b) Background fluorescence measurements for all RamR generations. The same promoter was used to express variants from each evolutionary trajectory (see methods) (c) Orthogonality matrix of all evolved sensors. Fold-response is shown for all BIAs for the native RamR protein, the first, second, third, and fourth generations from top to bottom, respectively. 100 μM of the indicated BIA was applied in all conditions. Measurements for each condition were an average of three biological replicates.

RamR = target: T1, RamR; test: Biosensor response assay: fluorescence response of multidrug resistance regulators to target BIAs; type: cell-based, Escherichia coli; conditions: E. coli DH10B, pReg + pGFP (sfGFP); glaucine 1 mM, noscapine 100 uM, papaverine 500 uM, rotundine 250 uM, tetrahydropapaverine 1 mM
Experimental: To identify a biosensor with some degree of BIA affinity to serve as a suitable scaffold for evolution, the responsiveness of six well characterized multidrug resistance regulators, QacR, TtgR, RamR, SmeT, NalD, and Bm3R1 to the target BIAs were assayed. Regulators were constitutively expressed on one plasmid (pReg) that was co-transformed with another plasmid bearing the regulator's cognate promoter expressing sfGFP (pGFP). Promoters for QacR and TtgR were obtained from the literature while promoters for the remainder were designed by either placing the sensor's operator downstream a medium strength promoter (Bm3R1) or by modifying the −35 or −10 regions of the sensor's native promoter towards the E. coli consensus (NalD, SmeT, RamR) [18*, 18**] if necessary to produce sufficient transcription (FIG. 7a). The ability of each regulator to repress transcription was confirmed by measuring the promoter activity with and without the expression of the cognate sensor via fluorescence (FIG. 7b). […]
Promoters for TtgR and QacR were derived from the literature. […] 100 μL of the cell resuspension for each condition was transferred to a 96 well microtiter plate (Corning, Product #: 3904), from which the fluorescence (Ex: 485 nm, Em: 509 nm) and absorbance ([…]) was measured using the Tecan Infinite M1000 plate reader.

Molecule	solubility limit in 1% DMSO [1]	Fluorescence response to target BIAs (RamR)
COc1ccc2c(c1OC)C(=O)O[C@@H]2[C@H]1c2c(cc3c(c2OC)OCO3)CCN1C [Noscapine, noscapine]	100 µM (≈ 41.3 µg/mL)	–
B1	–	moderately responsive
